According to patent US5436229A, “Bisulfite adducts of arginine aldehydes” (Eli Lilly and Company, priority 1994, dated 1995):
Non-standard residues stand in square brackets, D forms with d. Residues, ends and D or L forms follow the SMILES beside them. dNMeCha = CN[C@H](CC1CCCCC1)C(=O)O

Key:
[1] = system: human plasma; experiment: Human plasma anticoagulation, thrombin time (TT); type: biochemical
How it was run: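 Compounds added across a wide concentration range to human plasma; APTT, PT and TT clotting times measured on a coagulation instrument, bovine thrombin used for plasma assays. Concentration doubling clotting time estimated by linear extrapolation.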

[2] = Epimerization inhibition by sodium bisulfite (compound of Example 80, Step F); type: physicochemical; details: pH 7.4, 50° C.
Experimental: A 55.55 mM aqueous sodium phosphate solution (adjusted pH 7.4 with sodium hydroxide) was mixed with a 27.77 mM sodium bisulfite/27.77 mM sodium phosphate solution (adjusted pH 7.4 with sodium hydroxide) and water in various ratios to produce buffers containing 0,5.55, 16.66 and 27.77 mM sodium bisulfite. A 0.9 ml aliquot of each sodium bisulfite/phosphate buffer was added to separate 13×100 mm culture tubes and placed in a 50° C. Isotherm Tempblok® heater for 15 minutes. To each culture tube 0.1 ml of a 1 mg/ml aqueous solution of D-3-Piq-Pro-Arg-H.H2 SO4 (Example 80, Step F) was added and mixed well. […] These samples were allowed to react for 15 minutes at 90° C. and were then evaporated to dryness with nitrogen in a 55° C. N-Evap. The residue was dissolved in 1 ml of methanol and transferred to Varian Si BondElut SPE columns (1 ml) previously conditioned with 1 ml of water then 1 ml of methanol. The dissolved samples were pulled through solwly with a slight vacuum, and the sorbent layer was then washed with 2-1 ml volumes of methanol. The SPE columns were then dried at full vacuum (~25 in. Hg) and the compounds of interest were eluted with 300 μl of acetonitrile/100 mM sodium dodecyl sulfate (adjusted to pH 3 with phosphoric acid) (7:3, v/v) into 12×75 mm culture tubes. These eluates were analyzed by the HPLC system described below.
The mobile phase was acetonitrile/180 mM sodium dodecyl sulfate (adjusted to pH 3 with phosphoric acid) (85:15, v/v) pumped at 0.5 ml/min with a Shimadzu LC-10AD pump. The column was an Inertsil ODS(2) 150×3.0 mm maintained at 40° C. with a Jones Chromatography 7960 column heater. Twenty-five microliter injections were made with a Waters WISP 712 autosampler. Detection was accomplished with a Kratos 783 UV detector at 360 nm. The percentage of the DLD isomer was calculated using the peak areas of the DLL and DLD isomers in the chromatograms and the following equation: [formula]

CN[C@H](CC1CCCCC1)C(=O)N1CCC[C@H]1C(=O)N[C@H](C=O)CCCNC(=N)N.Cl [Example 75, N-methyl-D-cyclohexylalanyl-L-Prolinyl-L-Arginine Aldehyde Hydrochloride] (H-[dNMeCha]-Pro-Arg-aldehyde)
2 × Clotting time TT [1]: 18 ng/mL

N=C(N)NCCCC(C=O)NC(=O)C1CCCN1C(=O)C1CC2CCCCC2CN1.O=S(=O)(O)O [80 (Step F), D-3-(cis)Piq-Pro-Arg-H.H2 SO4]
Percentage of DLD Isomer ([2]; sodium bisulfite 0 mM, 0 hr): 4.84% | Percentage of DLD Isomer ([2]; sodium bisulfite 0 mM, 0.5 hr): 46.00% | Percentage of DLD Isomer ([2]; sodium bisulfite 0 mM, 1 hr): 49.42% | Percentage of DLD Isomer ([2]; sodium bisulfite 0 mM, 2 hr): 49.53% | Percentage of DLD Isomer ([2]; sodium bisulfite 0 mM, 3 hr): 50.16% | Percentage of DLD Isomer ([2]; sodium bisulfite 0 mM, 4 hr): 50.36% | Percentage of DLD Isomer ([2]; sodium bisulfite 0 mM, 6 hr): 49.71% | Percentage of DLD Isomer ([2]; sodium bisulfite 0 mM, 8 hr): 49.92% | Percentage of DLD Isomer ([2]; sodium bisulfite 5 mM, 0 hr): 4.23% | Percentage of DLD Isomer ([2]; sodium bisulfite 5 mM, 0.5 hr): 43.52% | Percentage of DLD Isomer ([2]; sodium bisulfite 5 mM, 1 hr): 48.99% | Percentage of DLD Isomer ([2]; sodium bisulfite 5 mM, 2 hr): 47.98% | Percentage of DLD Isomer ([2]; sodium bisulfite 5 mM, 3 hr): 49.89% | Percentage of DLD Isomer ([2]; sodium bisulfite 5 mM, 4 hr): 49.90% | Percentage of DLD Isomer ([2]; sodium bisulfite 5 mM, 6 hr): 49.80% | Percentage of DLD Isomer ([2]; sodium bisulfite 5 mM, 8 hr): 50.08% | Percentage of DLD Isomer ([2]; sodium bisulfite 15 mM, 0 hr): 4.16% | Percentage of DLD Isomer ([2]; sodium bisulfite 15 mM, 0.5 hr): 27.80% | Percentage of DLD Isomer ([2]; sodium bisulfite 15 mM, 1 hr): 40.63% | Percentage of DLD Isomer ([2]; sodium bisulfite 15 mM, 2 hr): 45.06% | Percentage of DLD Isomer ([2]; sodium bisulfite 15 mM, 3 hr): 45.72% | Percentage of DLD Isomer ([2]; sodium bisulfite 15 mM, 4 hr): 49.24% | Percentage of DLD Isomer ([2]; sodium bisulfite 15 mM, 6 hr): 49.63% | Percentage of DLD Isomer ([2]; sodium bisulfite 15 mM, 8 hr): 49.99% | Percentage of DLD Isomer ([2]; sodium bisulfite 25 mM, 0 hr): 3.71% | Percentage of DLD Isomer ([2]; sodium bisulfite 25 mM, 0.5 hr): 4.56% | Percentage of DLD Isomer ([2]; sodium bisulfite 25 mM, 1 hr): 5.14% | Percentage of DLD Isomer ([2]; sodium bisulfite 25 mM, 2 hr): 5.31% | Percentage of DLD Isomer ([2]; sodium bisulfite 25 mM, 3 hr): 5.79% | Percentage of DLD Isomer ([2]; sodium bisulfite 25 mM, 4 hr): 6.06% | Percentage of DLD Isomer ([2]; sodium bisulfite 25 mM, 6 hr): 6.39% | Percentage of DLD Isomer ([2]; sodium bisulfite 25 mM, 8 hr): 6.72%
